Source: ChEMBL document CHEMBL5661983, “The selective anaplastic lymphoma receptor tyrosine kinase inhibitor ASP3026 induces tumor regression and prolongs survival in non-small cell lung cancer model mice” (Mol Cancer Ther, 2014)
Active and inactive are the calls of the source. The rule behind the calls is not given here.

Assays:
[1] = target: T1, ALK tyrosine kinase receptor (Homo sapiens, UniProt Q9UM73); assay: Inhibition of ALK phosphorylation in human NCI-H2228 cells assessed as phosphorylated ALK level at 100 nmol/L measured after 4 hrs by Western blot analysis relative to control; type: cell-based; set-up: scale not given: the % may be the effect or the level left
Target sequence in this assay (Q9UM73 19-1620 limits assumed): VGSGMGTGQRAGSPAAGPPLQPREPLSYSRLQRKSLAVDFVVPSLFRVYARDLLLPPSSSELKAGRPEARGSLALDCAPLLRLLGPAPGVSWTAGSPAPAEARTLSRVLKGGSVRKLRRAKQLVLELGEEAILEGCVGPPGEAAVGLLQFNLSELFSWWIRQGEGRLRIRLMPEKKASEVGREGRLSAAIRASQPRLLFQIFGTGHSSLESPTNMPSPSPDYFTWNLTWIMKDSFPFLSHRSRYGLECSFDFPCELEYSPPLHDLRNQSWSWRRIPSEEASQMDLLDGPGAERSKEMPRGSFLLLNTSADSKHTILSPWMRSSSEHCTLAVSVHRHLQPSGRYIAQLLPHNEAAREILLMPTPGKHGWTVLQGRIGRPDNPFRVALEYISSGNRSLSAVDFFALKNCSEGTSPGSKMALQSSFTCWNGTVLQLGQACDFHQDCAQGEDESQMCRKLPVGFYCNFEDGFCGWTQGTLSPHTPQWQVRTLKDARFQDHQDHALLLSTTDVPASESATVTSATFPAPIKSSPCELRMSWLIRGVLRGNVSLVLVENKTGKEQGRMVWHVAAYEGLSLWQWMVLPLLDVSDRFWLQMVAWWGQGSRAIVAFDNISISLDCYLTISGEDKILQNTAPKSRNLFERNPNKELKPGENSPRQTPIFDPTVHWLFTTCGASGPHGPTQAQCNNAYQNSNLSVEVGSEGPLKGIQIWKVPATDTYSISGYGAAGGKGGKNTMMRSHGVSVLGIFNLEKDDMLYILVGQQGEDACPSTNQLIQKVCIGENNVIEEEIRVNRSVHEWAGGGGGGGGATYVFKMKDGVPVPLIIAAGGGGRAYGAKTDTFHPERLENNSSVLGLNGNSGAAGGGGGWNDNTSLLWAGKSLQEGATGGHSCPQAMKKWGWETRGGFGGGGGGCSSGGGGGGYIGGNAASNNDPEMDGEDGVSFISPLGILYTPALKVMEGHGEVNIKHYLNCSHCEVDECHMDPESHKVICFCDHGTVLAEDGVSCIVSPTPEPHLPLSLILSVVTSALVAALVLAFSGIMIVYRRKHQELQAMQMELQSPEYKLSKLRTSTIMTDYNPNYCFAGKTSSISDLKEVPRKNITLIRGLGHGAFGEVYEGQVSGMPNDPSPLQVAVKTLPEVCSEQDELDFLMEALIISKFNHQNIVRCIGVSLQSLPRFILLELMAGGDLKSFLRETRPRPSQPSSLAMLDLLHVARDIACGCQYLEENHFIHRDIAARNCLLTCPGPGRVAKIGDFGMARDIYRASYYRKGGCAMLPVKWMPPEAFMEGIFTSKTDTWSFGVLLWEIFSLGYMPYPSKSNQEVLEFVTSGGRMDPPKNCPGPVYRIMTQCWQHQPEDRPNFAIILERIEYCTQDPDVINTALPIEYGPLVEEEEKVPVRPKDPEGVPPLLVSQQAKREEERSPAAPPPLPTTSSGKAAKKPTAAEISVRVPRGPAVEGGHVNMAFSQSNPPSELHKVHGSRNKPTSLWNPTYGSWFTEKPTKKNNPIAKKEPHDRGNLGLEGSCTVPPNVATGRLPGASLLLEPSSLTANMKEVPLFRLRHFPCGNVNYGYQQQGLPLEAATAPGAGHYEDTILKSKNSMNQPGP

[2] = target: T1, ALK tyrosine kinase receptor; assay: Inhibition of ALK in human NCI-H2228 cells assessed as reduction in AKT phosphorylation by measuring phosphorylated AKT level at 1000 nmol/L measured after 4 hrs by Western blot analysis relative to control; type: cell-based; set-up: scale not given: the % may be the effect or the level left
Target sequence in this assay (Q9UM73 19-1620 limits assumed): as above

[3] = AUC (0 to 24 hrs) in human NCI-H2228 cell xenografted NOD.CB17-Prkdcscid/J mouse tumor at 1 mg/kg/day for 5 days by HPLC-MS analysis; type: ADME, organism-based, Neoplasm; conditions: in vivo, po, 120 h, time 5 day
[4] = target: Tyrosine-protein kinase Lck (Homo sapiens, UniProt P06239)
NCI-H2228-Luc [5] = conditions: dose 30 mg/kg; route po; time 90 day
[6] = target: T1, ALK tyrosine kinase receptor; assay: Inhibition of ALK phosphorylation in human NCI-H2228 cells assessed as phosphorylated ALK level at 10 nmol/L measured after 4 hrs by Western blot analysis relative to control; type: cell-based; set-up: scale not given: the % may be the effect or the level left
Target sequence in this assay (Q9UM73 19-1620 limits assumed): as above

NCI-H2228-Luc [7] = assay: Antitumor activity against human NCI-H2228-Luc cells intrahepatically xenografted in NOD.CB17-Prkdcscid/J mouse assessed as reduction in tumor burden by measuring bioluminescence emission at 30 mg/kg, po administered once daily for 3 weeks starting from 14 days post-cell inoculation and measured on day 19 by bioluminescent imaging analysis (reference value: 3.3 x 10^8 photon/sec); type: functional; conditions: time 19 day
[8] = target: Tyrosine-protein kinase receptor TYRO3 (Homo sapiens, UniProt Q06418)
[9] = target: ALK tyrosine kinase receptor (Homo sapiens, UniProt Q9UM73, R1275Q)
NCI-H2228-Luc [10] = assay: Antitumor activity against human NCI-H2228-Luc cells intrapleurally xenografted in NOD.CB17-Prkdcscid/J mouse assessed as median survival time at 10 mg/kg, po administered once daily for 7 weeks starting from 14 days post-cell inoculation measured up to 90 days (reference value: 39 day); type: functional; conditions: time 90 day
Activated CDC42 kinase 1 = Activated CDC42 kinase 1 (Homo sapiens, UniProt Q07912)
[11] = target: T1, ALK tyrosine kinase receptor
[12] = AUC (0 to 24 hrs) in human NCI-H2228 cell xenografted NOD.CB17-Prkdcscid/J mouse plasma at 3 mg/kg/day for 5 days by HPLC-MS analysis; type: ADME, organism-based; conditions: route po, time 5 day
[13] = target: Tyrosine-protein kinase JAK2 (Homo sapiens, UniProt O60674)
NCI-H2228 [14] = assay: Potentiation of paclitaxel-induced antitumor activity against human NCI-H2228 cells xenografted in NOD.CB17-Prkdcscid/J mouse assessed as increase in tumor regression at 10 mg/kg, po administered once daily for 5 days; type: functional, organism-based; conditions: time 5.0 day
[15] = AUC (0 to 24 hrs) in human NCI-H2228 cell xenografted NOD.CB17-Prkdcscid/J mouse tumor at 3 mg/kg/day for 5 days by HPLC-MS analysis; type: ADME, organism-based, Neoplasm; conditions: in vivo, po, 120 h, time 5 day
[16] = Toxicity in human NCI-H2228 cell xenografted NOD.CB17-Prkdcscid/J mouse assessed as change in body weight at 10 mg/kg, po administered once daily for 5 days in presence of paclitaxel; type: organism-based; conditions: in vivo, 120 h, time 5 day
[17] = target: T1, ALK tyrosine kinase receptor; assay: Inhibition of ALK in human NCI-H2228 cells assessed as reduction in STAT3 phosphorylation by measuring phosphorylated STAT3 level at 1000 nmol/L measured after 4 hrs by Western blot analysis relative to control; type: cell-based; set-up: scale not given: the % may be the effect or the level left
Target sequence in this assay (Q9UM73 19-1620 limits assumed): as above

[18] = Cmax in human NCI-H2228 cell xenografted NOD.CB17-Prkdcscid/J mouse tumor at 3 mg/kg/day for 5 days by HPLC-MS analysis; type: ADME, organism-based, Neoplasm; conditions: route po, time 5 day
[19] = AUC (0 to 24 hrs) in human NCI-H2228 cell xenografted NOD.CB17-Prkdcscid/J mouse tumor at 10 mg/kg/day for 5 days by HPLC-MS analysis; type: ADME, organism-based, Neoplasm; conditions: in vivo, po, 120 h, time 5 day
NCI-H2228 [20] = assay: Antiproliferative activity against human NCI-H2228 cell spheroids assessed as reduction in cell growth measured after 5 days by celltiter-glo luminescent cell viability assay; type: functional, cell-based; conditions: NCI-H2228, 120 h
NCI-H2228 [21] = assay: Antitumor activity against human NCI-H2228 cells xenografted in NOD.CB17-Prkdcscid/J mouse assessed as tumor regression at 3 mg/kg, po administered once daily for 2 weeks relative to control; type: functional
[22] = Selectivity ratio of IC50 for EML4-ALK L1196M mutant (unknown origin) transformed in mouse BaF3 cells to IC50 for EML4-ALK (unknown origin) transformed in mouse BaF3 cells; set-up: species or system Homo sapiens; conditions: condition non-small cell lung carcinoma
[23] = Cmax in human NCI-H2228 cell xenografted NOD.CB17-Prkdcscid/J mouse plasma at 1 mg/kg/day for 5 days by HPLC-MS analysis; type: ADME, organism-based; conditions: route po, time 5 day
NCI-H2228 [24] = assay: Potentiation of carboplatin-induced antitumor activity against human NCI-H2228 cells xenografted in NOD.CB17-Prkdcscid/J mouse assessed as reduction in tumor volume at 10 mg/kg, po administered once daily for 5 days; type: functional, organism-based; conditions: time 5.0 day
Ephrin type-A receptor 2 = Ephrin type-A receptor 2 (Homo sapiens, UniProt P29317)
[25] = target: Muscle, skeletal receptor tyrosine-protein kinase (Homo sapiens, UniProt O15146)
in vivo = conditions: NOD.CB17-Prkdcscid/J, mouse, tumour, po, 1 mg/kg
NCI-H2228-Luc [26] = assay: Antitumor activity against human NCI-H2228-Luc cells intrapleurally xenografted in NOD.CB17-Prkdcscid/J mouse assessed as median survival time at 3 mg/kg, po administered once daily for 7 weeks starting from 14 days post-cell inoculation measured up to 90 days (reference value: 39 day); type: functional; conditions: time 90 day
Mus musculus = assay: Antitumor activity against hEML4-ALK transgenic C57BL/6J mouse assessed as reduction in tumor mass at 100 mg/kg, po administered daily for 10 days and measured on day 11 by computed tomography scan analysis; type: functional, organism-based; conditions: time 11.0 day
NCI-H2228 [27] = assay: Antitumor activity against human NCI-H2228 cells xenografted in NOD.CB17-Prkdcscid/J mouse assessed as tumor regression at 10 mg/kg, po administered once daily for 2 weeks relative to control; type: functional
EML4-ALK = EML4-ALK (Homo sapiens, UniProt Q9UM73, L1196M); type: cell-based, BaF3
[28] = target: Tyrosine-protein kinase Mer (Homo sapiens, UniProt Q12866)
[29] = target: ALK tyrosine kinase receptor (Homo sapiens, UniProt Q9UM73, F1174L)
[30] = Cmax in human NCI-H2228 cell xenografted NOD.CB17-Prkdcscid/J mouse plasma at 10 mg/kg/day for 5 days by HPLC-MS analysis; type: ADME, organism-based; conditions: route po, time 5 day

Chain of EML4-ALK (Q9UM73 19-1620 L1196M limits assumed): as the sequence (Q9UM73 19-1620 limits assumed) above, with L1178M counted along it
Chain of Muscle, skeletal receptor tyrosine-protein kinase (O15146 whole entry): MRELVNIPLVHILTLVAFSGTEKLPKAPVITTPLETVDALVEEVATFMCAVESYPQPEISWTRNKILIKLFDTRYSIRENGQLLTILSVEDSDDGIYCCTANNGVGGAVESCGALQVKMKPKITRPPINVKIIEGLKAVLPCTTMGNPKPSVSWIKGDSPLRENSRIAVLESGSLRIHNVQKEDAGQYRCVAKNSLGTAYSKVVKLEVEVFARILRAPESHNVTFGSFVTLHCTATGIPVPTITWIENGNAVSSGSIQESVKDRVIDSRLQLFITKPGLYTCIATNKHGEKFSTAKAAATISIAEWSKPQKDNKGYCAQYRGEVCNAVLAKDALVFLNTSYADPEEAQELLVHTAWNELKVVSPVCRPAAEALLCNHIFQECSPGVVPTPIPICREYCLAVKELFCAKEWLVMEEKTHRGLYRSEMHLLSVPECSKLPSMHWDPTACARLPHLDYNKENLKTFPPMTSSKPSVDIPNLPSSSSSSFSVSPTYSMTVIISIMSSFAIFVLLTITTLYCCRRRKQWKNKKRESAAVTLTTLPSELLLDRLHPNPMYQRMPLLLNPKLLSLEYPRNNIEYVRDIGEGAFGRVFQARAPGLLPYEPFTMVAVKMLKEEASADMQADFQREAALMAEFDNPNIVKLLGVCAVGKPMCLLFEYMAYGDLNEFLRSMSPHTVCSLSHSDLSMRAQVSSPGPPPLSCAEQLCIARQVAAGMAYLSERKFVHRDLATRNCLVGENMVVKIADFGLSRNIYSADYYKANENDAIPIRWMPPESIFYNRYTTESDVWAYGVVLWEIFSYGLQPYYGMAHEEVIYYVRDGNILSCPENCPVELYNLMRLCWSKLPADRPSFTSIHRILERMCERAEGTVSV
Chain of Ephrin type-A receptor 2 (P29317 whole entry): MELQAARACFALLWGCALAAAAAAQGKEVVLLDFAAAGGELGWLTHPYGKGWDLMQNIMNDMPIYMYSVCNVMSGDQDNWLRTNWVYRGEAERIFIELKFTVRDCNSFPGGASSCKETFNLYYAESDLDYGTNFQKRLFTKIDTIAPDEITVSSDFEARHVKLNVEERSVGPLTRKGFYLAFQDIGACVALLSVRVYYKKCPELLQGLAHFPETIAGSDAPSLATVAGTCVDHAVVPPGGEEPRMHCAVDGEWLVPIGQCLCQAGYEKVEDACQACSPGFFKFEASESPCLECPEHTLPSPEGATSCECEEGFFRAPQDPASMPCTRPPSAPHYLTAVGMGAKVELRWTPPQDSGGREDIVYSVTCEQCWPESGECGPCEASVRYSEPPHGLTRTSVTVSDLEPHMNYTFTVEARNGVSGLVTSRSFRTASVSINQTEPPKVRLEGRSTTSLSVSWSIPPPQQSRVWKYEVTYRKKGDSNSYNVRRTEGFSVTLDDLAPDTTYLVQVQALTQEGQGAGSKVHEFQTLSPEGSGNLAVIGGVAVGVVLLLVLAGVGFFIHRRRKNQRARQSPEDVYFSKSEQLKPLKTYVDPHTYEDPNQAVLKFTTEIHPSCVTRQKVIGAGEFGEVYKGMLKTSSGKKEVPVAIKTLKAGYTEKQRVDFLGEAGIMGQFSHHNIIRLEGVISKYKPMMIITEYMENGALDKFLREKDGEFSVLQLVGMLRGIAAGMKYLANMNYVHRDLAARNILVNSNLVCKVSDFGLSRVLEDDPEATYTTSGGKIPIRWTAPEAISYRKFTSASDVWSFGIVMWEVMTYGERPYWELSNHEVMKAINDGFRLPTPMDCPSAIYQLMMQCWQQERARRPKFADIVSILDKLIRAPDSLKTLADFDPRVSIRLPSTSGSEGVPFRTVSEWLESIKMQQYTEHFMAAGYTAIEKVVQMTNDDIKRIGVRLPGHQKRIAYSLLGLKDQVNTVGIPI
Chain of Tyrosine-protein kinase JAK2 (O60674 whole entry): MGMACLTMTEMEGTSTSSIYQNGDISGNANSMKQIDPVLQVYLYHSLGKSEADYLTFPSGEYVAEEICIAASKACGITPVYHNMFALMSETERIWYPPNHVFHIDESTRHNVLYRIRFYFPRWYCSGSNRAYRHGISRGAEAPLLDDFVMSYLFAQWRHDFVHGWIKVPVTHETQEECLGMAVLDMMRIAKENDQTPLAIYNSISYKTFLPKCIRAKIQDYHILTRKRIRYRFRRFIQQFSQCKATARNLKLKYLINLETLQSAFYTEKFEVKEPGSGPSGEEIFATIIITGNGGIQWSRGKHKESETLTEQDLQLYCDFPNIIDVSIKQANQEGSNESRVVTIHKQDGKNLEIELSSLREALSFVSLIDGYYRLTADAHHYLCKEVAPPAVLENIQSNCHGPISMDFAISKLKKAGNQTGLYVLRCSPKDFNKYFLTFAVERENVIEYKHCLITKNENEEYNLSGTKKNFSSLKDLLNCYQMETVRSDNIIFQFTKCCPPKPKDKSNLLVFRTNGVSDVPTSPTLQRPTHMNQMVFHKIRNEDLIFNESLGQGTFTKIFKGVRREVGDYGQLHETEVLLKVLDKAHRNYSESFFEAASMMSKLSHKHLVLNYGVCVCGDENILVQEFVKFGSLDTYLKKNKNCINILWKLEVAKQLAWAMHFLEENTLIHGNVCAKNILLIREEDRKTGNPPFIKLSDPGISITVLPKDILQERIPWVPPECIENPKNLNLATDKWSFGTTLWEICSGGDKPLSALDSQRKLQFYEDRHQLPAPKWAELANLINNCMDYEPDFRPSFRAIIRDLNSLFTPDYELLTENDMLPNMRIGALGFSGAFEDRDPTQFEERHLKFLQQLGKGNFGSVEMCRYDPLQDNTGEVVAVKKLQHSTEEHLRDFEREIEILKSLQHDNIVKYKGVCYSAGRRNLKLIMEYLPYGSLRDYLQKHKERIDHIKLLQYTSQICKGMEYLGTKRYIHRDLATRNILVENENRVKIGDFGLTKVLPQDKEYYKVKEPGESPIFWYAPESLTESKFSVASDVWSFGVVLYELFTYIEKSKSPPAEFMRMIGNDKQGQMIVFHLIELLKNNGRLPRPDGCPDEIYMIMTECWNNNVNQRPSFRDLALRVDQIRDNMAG
Chain of ALK tyrosine kinase receptor (Homo sapiens, UniProt Q9UM73, F1174L) (Q9UM73 19-1620 F1174L limits assumed): as the sequence (Q9UM73 19-1620 limits assumed) above, with F1156L counted along it
Chain of ALK tyrosine kinase receptor (Homo sapiens, UniProt Q9UM73, R1275Q) (Q9UM73 19-1620 R1275Q limits assumed): as the sequence (Q9UM73 19-1620 limits assumed) above, with R1257Q counted along it

COc1cc(N2CCC(N3CCN(C)CC3)CC2)ccc1Nc1ncnc(Nc2ccccc2S(=O)(=O)C(C)C)n1 [ASP-3026]
Activity [1]: 37% | Activity [2]: 20% | AUC [3]: 13600 ng·h/g | IC50 [4]: > 100 nM | MST (NCI-H2228-Luc [5]): >90 days | Activity [6]: 70% | Activity (NCI-H2228-Luc [7]): 7.7 10^6No_unit | IC50 [8]: > 1000 nM | IC50 [9]: 5.4 nM | MST (NCI-H2228-Luc [10]): 79 days | IC50 (Activated CDC42 kinase 1): 5.8 nM | IC50 [11]: 3.5 nM | AUC at 120 h [12]: 1820 ng·h/mL | IC50 [13]: > 1000 nM | Activity (NCI-H2228 [14]): Active | AUC [15]: 34400 ng·h/g | Activity [16]: Non-Toxic | Activity [17]: 46% | Cmax [18]: 2270 ng/g | AUC [19]: 121000 ng·h/g | IC50 (NCI-H2228 [20]): 64.8 nM | Activity (NCI-H2228 [21]): 4% | Ratio IC50 [22]: 3.2 | Cmax [23]: 44.3 ng/mL | Activity (NCI-H2228 [24]): inactive | IC50 (Ephrin type-A receptor 2): > 1000 nM | IC50 [25]: > 100 nM | Kp at 120 h (in vivo): 22 | MST (NCI-H2228-Luc [26]): 56.5 days | Activity (Mus musculus): Active | Activity (NCI-H2228 [27]): 45% | IC50 (EML4-ALK): 32 nM | IC50 [28]: > 1000 nM | IC50 [29]: 10 nM | Cmax [30]: 508 ng/mL
